In article PMC314469, “Protein Interaction Networks by Proteome Peptide Scanning” (PLoS Biology, 2004):

What follows are sequences tested on Myo5 SH3 domain (assay: SPOT analysis of cellulose-bound peptides (WISE), Myo5 SH3 domain (Dataset S4)). Details: SPOT analysis of cellulose-bound 14-mer yeast proteome peptides, Myo5 SH3 domain; normalized value; mean where the peptide was synthesized more than once.
Type: binding, Saccharomyces cerevisiae

Sequence	The normalized value in BLU units [BLU]
IAGMLMVPESPRFL	255.1
IAKPYVLPFFPLYA	246.9
IEEGHLDPEAPDKL	84.8
IEITHSEPAIPYRE	114.3
IEVPMEYPFKPPKM	384.5
IFFKLIHPFLPILH	503.3
IFQSLLHPELPIII	239.9
IGKSKSAPPIPEDT	243.5
ILFERILPILPVES	339.9
ILQILFEPMPPFNS	200.5
ILTLLKMPEVPNSV	172.2
ILVPHLDPIDPWEA	166.0
IMDAKFHPFKPQLF	246.2
INNTRLSPNSPTPP	139.6
INVEREAPMFPVPY	148.9
IPTSHAPPLPPTAP	43593.6
IPVGYVTPKFPSLY	21.6

Same assay, conditions: SPOT analysis of cellulose-bound peptides probed with Myo5 SH3 domain; normalized value

Sequence	The normalized value in BLU units (SPOT analysis, Myo5 SH3) [BLU]
IAECLGVPWEPVDL	142.9
IARPLSVPGSPKVR	382.9
IARSFTIPFLPKIP	204.5
IATMYPIPAYPDLL	96.9
IEFDLSKPFTPFQQ	134.1
IEPDFIEPDAPLAA	61.4
IERVWNGPVEPSDE	180.2
ILCAYNSPKVPADI	81.4
ILHQLGAPSIPENL	174.0
ILIFLWIPDDPSKA	1371.6
ILPVLNIPLPPQEK	21.6
ILQELSLPSRPVMP	51.9
ILTCLPVPPPPVRP	616.9
ILVAYGLPVSPDEK	166.6
IPLPHQPPPLPIYS	53588.9

Same assay, conditions: SPOT analysis of membrane-bound peptides, Myo5 SH3 domain; normalized value (see methods)

Sequence	The normalized value in BLU units [BLU]
IAEWKNDPNNPNFE	91.1
IAKLKRKPVVPRLK	888.5
IAVTRSIPRGPDKN	157.9
IDIPRTNPHIPLYQ	139.2
IDKSKLSPRFPELK	233.0
IFVTRYLPYFPIMY	156.7
IKYFKKFPKDPLAM	237.4
ILAVKKNPQSPMYT	175.4
ILEGKFEPVIPREW	93.2
ILERKNIPRQPAIR	602.9
INIAKAHPNFPIAL	195.5
INNNKMRPHLPPLS	1004.0
IPAPKLVPPPPRTR	82308.4
IRTYKVVPLGPKAG	100.2

Same assay, conditions: SPOT analysis of membrane-synthesized peptides probed with Myo5 SH3 domain; normalized value

Sequence	The normalized value in BLU units (SPOT analysis, Myo5 SH3) [BLU]
IAGQRTFPEDPNYP	171.7
IESFRERPLEPPRK	98.7
IESLREIPYGPDFD	115.6
IGSPRHAPSRPDSI	193.4
IKMSRSPPRPPSLK	17731.3
ILKNRMNPEKPYEL	321.6
ILPPRIVPAIPKKA	3670.9
INGEKACPFLPSSL	183.7
INTFKTLPTKPEMQ	167.1
IPYEKRDPTSPAPL	114.1
IQQNKQGPKIPFYL	86.9
ISADKGFPLIPSGY	113.3
